How the values were obtained:
[1] = test system: Glutamate (non-selective); assay: Radioligand binding inhibition, Glutamate non-selective; conditions: 10 µM; radioligand [^3H]Glutamic acid; mean of duplicate
Experimental: (§1) Interaction of MMP with 28 binding sites was examined, including major classes of neurotransmitter receptor, uptake system, and ion channels (Sekisui Medical, Naka, Japan). MMP was tested in all assays at 10 µM. […] 10.2.3 (GraphPad Software, San Diego, CA). Each determination was made in duplicate.
(§2) Test substance concentration : 10 µM, positive substance concentration : 10 µM
(§3) Data are expressed as the mean values of duplicate samples.
(§4) The % inhibition was calculated from “100 – binding ratio”.
(§5) Binding ratio: [(B - N) / (B0 - N)] × 100 (%)
(§6) B: Bound radioactivity in the presence of test substance and positive substance (individual value)
(§7) B0: Total bound radioactivity in the absence of test substance and positive substance (mean value)
(§8) N: Non-specific bound radioactivity (mean value)

[2] = test system: Glutamate (NMDA agonist site); assay: Radioligand binding inhibition, Glutamate NMDA agonist site; conditions: 10 µM; radioligand [^3H]CGP-39653; mean of duplicate
Experimental: as §1, §2, §3, §4, §5, §6, §7, §8

[3] = molecular target: T1, Glutamate (NMDA glycine site) (Homo sapiens, UniProt Q05586); assay: Radioligand binding inhibition, Glutamate NMDA glycine site; conditions: 10 µM; radioligand [^3H]MDL105,519; mean of duplicate
T1 construct: Sekisui Medical (contract laboratory)
Experimental: as §1, §2, §3, §4, §5, §6, §7, §8

[4] = test system: α2-Adrenergic (non-selective); assay: Radioligand binding inhibition, α2-Adrenergic; conditions: 10 µM; radioligand [^3H]Rauwolscine; mean of duplicate
Experimental: as §1, §2, §3, §4, §5, §6, §7, §8

Serotonin 5HT1A = molecular target: T2, Serotonin 5HT1A (Homo sapiens, UniProt P08908); assay: Radioligand binding inhibition, Serotonin 5HT1A; conditions: 10 µM; radioligand [^3H]8-OH DPAT; mean of duplicate
T2 construct: Sekisui Medical (contract laboratory)
T2 sequence (P08908 whole entry): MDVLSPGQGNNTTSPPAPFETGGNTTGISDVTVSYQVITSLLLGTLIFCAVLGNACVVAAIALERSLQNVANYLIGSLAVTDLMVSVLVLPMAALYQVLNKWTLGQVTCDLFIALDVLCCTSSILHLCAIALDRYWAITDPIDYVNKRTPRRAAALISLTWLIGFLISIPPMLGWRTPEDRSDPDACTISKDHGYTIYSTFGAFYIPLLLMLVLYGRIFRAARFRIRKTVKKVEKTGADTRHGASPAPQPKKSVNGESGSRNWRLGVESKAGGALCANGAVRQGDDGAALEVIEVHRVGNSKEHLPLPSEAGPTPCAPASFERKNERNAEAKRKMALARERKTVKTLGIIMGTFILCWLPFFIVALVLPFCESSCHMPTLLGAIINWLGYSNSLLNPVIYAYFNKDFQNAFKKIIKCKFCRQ
Experimental: as §1, §2, §3, §4, §5, §6, §7, §8

Nicotinic (neuronal) = assay type: binding; conditions: 10 µM; radioligand [^3H]Cytisine; mean of duplicate
GABA A (BZ central) = assay: Radioligand binding inhibition, GABA A BZ central; conditions: 10 µM; radioligand [^3H]Flunitrazepam; mean of duplicate
Experimental: as §1, §2, §3, §4, §5, §6, §7, §8

Histamine H2 = molecular target: T3, Histamine H2 (Homo sapiens, UniProt P25021); assay: Radioligand binding inhibition, Histamine H2; conditions: 10 µM; radioligand [^125I]Iodoaminopotentidine; mean of duplicate
T3 construct: Sekisui Medical (contract laboratory)
T3 sequence (P25021 whole entry): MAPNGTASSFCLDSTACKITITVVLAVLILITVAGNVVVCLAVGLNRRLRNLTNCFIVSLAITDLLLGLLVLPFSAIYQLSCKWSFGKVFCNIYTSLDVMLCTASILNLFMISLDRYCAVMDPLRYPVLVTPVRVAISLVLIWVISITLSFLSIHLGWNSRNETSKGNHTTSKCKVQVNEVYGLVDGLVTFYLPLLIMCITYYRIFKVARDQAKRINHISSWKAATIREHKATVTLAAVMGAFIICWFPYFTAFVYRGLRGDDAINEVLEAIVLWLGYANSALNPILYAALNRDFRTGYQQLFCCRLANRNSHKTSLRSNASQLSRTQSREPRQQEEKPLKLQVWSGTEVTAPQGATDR
Experimental: as §1, §2, §3, §4, §5, §6, §7, §8

Dopamine D2 = molecular target: T4, Dopamine D2 (Homo sapiens, UniProt P14416); assay: Radioligand binding inhibition, Dopamine D2; conditions: 10 µM; radioligand [^3H]Spiperone; mean of duplicate
T4 construct: Sekisui Medical (contract laboratory)
T4 sequence (P14416 whole entry): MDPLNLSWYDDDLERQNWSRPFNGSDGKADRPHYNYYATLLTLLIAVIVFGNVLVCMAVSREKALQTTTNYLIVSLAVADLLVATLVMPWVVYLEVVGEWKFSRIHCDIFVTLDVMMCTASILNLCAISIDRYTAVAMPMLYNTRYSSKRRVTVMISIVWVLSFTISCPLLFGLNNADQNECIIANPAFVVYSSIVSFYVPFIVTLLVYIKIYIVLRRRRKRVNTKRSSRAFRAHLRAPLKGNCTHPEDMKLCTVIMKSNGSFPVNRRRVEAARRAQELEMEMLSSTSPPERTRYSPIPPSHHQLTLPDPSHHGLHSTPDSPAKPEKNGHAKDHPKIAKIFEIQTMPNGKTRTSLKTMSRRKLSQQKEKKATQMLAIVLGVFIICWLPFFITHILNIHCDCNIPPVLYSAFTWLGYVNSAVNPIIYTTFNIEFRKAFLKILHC
Experimental: as §1, §2, §3, §4, §5, §6, §7, §8

[5] = test system: Glutamate (NMDA phencyclidine site); assay: Radioligand binding inhibition, Glutamate NMDA phencyclidine site; conditions: 10 µM; radioligand [^3H]MK-801; mean of duplicate
Experimental: as §1, §2, §3, §4, §5, §6, §7, §8

Opiate (non-selective) = assay: Radioligand binding inhibition, Opiate; conditions: 10 µM; radioligand [^3H]Naloxone; mean of duplicate
Experimental: as §1, §2, §3, §4, §5, §6, §7, §8

Serotonin 5HT2A = molecular target: T5, Serotonin 5HT2A (Homo sapiens, UniProt P28223); assay: Radioligand binding inhibition, Serotonin 5HT2A; conditions: 10 µM; radioligand [^3H]Ketanserin; mean of duplicate
T5 construct: Sekisui Medical (contract laboratory that ran the panel)
T5 sequence (P28223 whole entry): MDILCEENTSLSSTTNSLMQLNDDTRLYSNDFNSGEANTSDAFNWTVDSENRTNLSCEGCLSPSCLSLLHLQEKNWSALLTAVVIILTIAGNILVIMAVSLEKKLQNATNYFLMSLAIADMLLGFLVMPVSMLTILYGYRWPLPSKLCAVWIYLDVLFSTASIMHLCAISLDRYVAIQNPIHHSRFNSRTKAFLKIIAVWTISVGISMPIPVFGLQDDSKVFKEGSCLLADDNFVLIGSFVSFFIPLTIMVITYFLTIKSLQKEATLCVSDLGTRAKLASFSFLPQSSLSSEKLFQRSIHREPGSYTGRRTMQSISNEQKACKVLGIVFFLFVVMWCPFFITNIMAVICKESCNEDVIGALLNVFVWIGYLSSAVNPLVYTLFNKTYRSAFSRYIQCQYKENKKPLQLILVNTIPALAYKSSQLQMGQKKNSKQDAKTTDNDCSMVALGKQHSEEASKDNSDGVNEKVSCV
Experimental: as §1, §2, §3, §4, §5, §6, §7, §8

[6] = test system: β-Adrenergic (non-selective); assay: Radioligand binding inhibition, β-Adrenergic; conditions: 10 µM; radioligand [^3H]DHA; mean of duplicate
Experimental: as §1, §2, §3, §4, §5, §6, §7, §8

Serotonin 5HT3 (human) = molecular target: T6, Serotonin 5HT3 (human) (Homo sapiens, UniProt P46098); assay: Radioligand binding inhibition, Serotonin 5HT3; conditions: 10 µM; radioligand [^3H]GR65630; mean of duplicate
T6 construct: Sekisui Medical (contract laboratory that ran the panel)
T6 sequence (P46098 24-478): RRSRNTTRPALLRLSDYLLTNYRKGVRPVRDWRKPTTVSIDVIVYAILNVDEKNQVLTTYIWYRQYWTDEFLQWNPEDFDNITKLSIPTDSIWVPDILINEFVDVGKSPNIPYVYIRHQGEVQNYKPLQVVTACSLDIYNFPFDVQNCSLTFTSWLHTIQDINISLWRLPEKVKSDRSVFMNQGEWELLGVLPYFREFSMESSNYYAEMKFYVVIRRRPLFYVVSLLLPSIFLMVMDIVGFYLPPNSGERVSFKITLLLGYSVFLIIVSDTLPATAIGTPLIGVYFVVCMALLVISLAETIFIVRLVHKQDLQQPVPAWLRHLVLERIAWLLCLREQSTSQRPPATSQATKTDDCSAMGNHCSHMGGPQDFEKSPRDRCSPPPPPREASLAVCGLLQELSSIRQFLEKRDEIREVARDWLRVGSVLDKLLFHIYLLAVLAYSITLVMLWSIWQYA
Experimental: as §1, §2, §3, §4, §5, §6, §7, §8

[7] = test system: Glycine (strychnine site); assay type: binding; conditions: 10 µM; radioligand [^3H]Strychine; mean of duplicate
Glutamate (AMPA) = assay: Radioligand binding inhibition, Glutamate AMPA; conditions: 10 µM; radioligand [^3H]AMPA; mean of duplicate
Experimental: as §1, §2, §3, §4, §5, §6, §7, §8

Glutamate (Ketamine) = assay: Radioligand binding inhibition, Glutamate (Ketamine); conditions: 10 µM; radioligand [^3H]Kainic acid; mean of duplicate
GABA A (agonist site) = assay: Radioligand binding inhibition, GABA A agonist site; conditions: 10 µM; radioligand [^3H]Muscimol; mean of duplicate
Experimental: as §1, §2, §3, §4, §5, §6, §7, §8

With `N[C@@H](CCC(=O)O)C(=O)O` [L-Glutamic acid, reference compound] the “Inhibition ratio (%)” value [1] was 93.56% and the “Inhibition ratio (%)” value [2] was 100.00%.

In the case of `O=C(O)/C(=C/c1c(C(=O)O)[nH]c2cc(Cl)cc(Cl)c12)c1ccccc1` [MDL105,519, reference compound], the “Inhibition ratio (%)” value [3] is reported as 97.35%.

In the case of `COC(=O)[C@@H]1[C@H]2C[C@H]3c4[nH]c5ccccc5c4CCN3C[C@@H]2CC[C@@H]1O` [Yohimbine, reference compound], the “Inhibition ratio (%)” value [4] is reported as 89.82%.

`NCCc1c[nH]c2ccc(O)cc12` [Serotonin, reference compound] was tested, and the “Inhibition ratio (%)” value (Serotonin 5HT1A) was 95.99%.

For (±)-Nicotine [reference compound], the “Inhibition ratio (%)” value (Nicotinic (neuronal)) was 95.62%.

For `CN1C(=O)CN=C(c2ccccc2)c2cc(Cl)ccc21` [Diazepam, reference compound], the “Inhibition ratio (%)” value (GABA A (BZ central)) was 100.00%.

`CN/C(=N/CCSCc1nc[nH]c1C)NC#N` [Cimetidine, reference compound] was tested, and the “Inhibition ratio (%)” value (Histamine H2) was 97.63%.

For (+)-Butaclamol [reference compound], the “Inhibition ratio (%)” value (Dopamine D2) was 95.06%.

With (+)-MK-801 [reference compound] the “Inhibition ratio (%)” value [5] was 100.00%.

For `C=CCN1CC[C@]23c4c5ccc(O)c4O[C@H]2C(=O)CC[C@@]3(O)[C@H]1C5` [Naloxone, reference compound], the “Inhibition ratio (%)” value (Opiate (non-selective)) was 96.53%.

`O=C(c1ccc(F)cc1)C1CCN(CCn2c(=O)[nH]c3ccccc3c2=O)CC1` [Ketanserin, reference compound] was tested, and the “Inhibition ratio (%)” value (Serotonin 5HT2A) was 98.94%.

In the case of `CC(C)NCC(O)COc1cccc2ccccc12` (racemic) [(±)-Propranolol, reference compound], the “Inhibition ratio (%)” value [6] is reported as 97.25%.

`CN1[C@@H]2CC[C@H]1C[C@@H](OC(=O)c1c[nH]c3ccccc13)C2` [Tropisetron, reference compound] was tested, and the “Inhibition ratio (%)” value (Serotonin 5HT3 (human)) was 99.78%.

For `O=C1C[C@@H]2OCC=C3CN4CC[C@]56c7ccccc7N1[C@H]5[C@H]2[C@H]3C[C@H]46` [Strychnine, reference compound], the “Inhibition ratio (%)” value [7] was 100.00%.

For `Cc1o[nH]c(=O)c1C[C@H](N)C(=O)O` [(S)-AMPA, reference compound], the “Inhibition ratio (%)” value (Glutamate (AMPA)) was 98.65%.

In the case of `C=C(C)[C@H]1CN[C@H](C(=O)O)[C@H]1CC(=O)O` [Kainic acid, reference compound], the “Inhibition ratio (%)” value (Glutamate (Ketamine)) is reported as 97.79%.

With `NCc1cc(=O)[nH]o1` [Muscimol, reference compound] the “Inhibition ratio (%)” value (GABA A (agonist site)) was 96.50%.

Source: PMC11266321 (EJNMMI Radiopharmacy and Chemistry, 2024)
